Laboratory results reported in patent publication US11059844B2, “Immune stimulating macrolides” (ISR IMMUNE SYSTEM REGULATION HOLDING AB (PUBL), priority 2017, dated 2021).

Legend:
[1] = system: Bifidobacterium longum subsp. infantis; experiment: Minimum Inhibitory Concentration (MIC) assay; assay type: cell-based; settings: anaerobic, 37° C., 18 h
Method: (§1) The bioactivity of macrolide compounds against 4 strains of common gut bacteria (Escherichia coli, Streptococcus salivarius subsp. salivarius, Lactobacillus casei and Bifidobacterium longum subsp. infantis) and common mammalian skin isolate Micrococcus luteus, was assessed using the Minimum Inhibitory Concentration (MIC) assay. Bacterial strains were purchased from DSMZ (Brunswick, Germany) except M. luteus which was obtained from NCIMB, and stored in 20% glycerol at −80° C. Stock solutions (100% DMSO) of positive controls (azithromycin and erythromycin), and of test compounds 1 and 2 were diluted in broth to working stock concentrations of 256 μg/ml (final assay testing concentration range 128 μg/ml to 0.00391 μg/ml). Stock solutions of all other compounds were diluted in broth to working stock concentrations of 128 μg/ml (final assay testing concentration range 64 μg/ml to 0.00195 μg/ml). Bacterial strains were cultivated in appropriate broth in an anaerobic chamber at 37° C., except for M. luteus which was incubated aerobically at 37° C. 18 h cultures were diluted in broth to an OD595 of 0.1 and then further diluted 1:10. In 96-well plates, in duplicate, 200 μl working stock of test compound was transferred to well 1 and serially diluted (1:2) in broth. 100 μl bacterial suspension was aliquoted into each well and mixed thoroughly. Appropriate sterility controls were included and plates were incubated in an anaerobic chamber, or aerobically (M. luteus) at 37° C. for 18 h. The MIC was determined to be the concentration of test compound in the first well with no visible growth.

Escherichia coli = experiment: Minimum Inhibitory Concentration (MIC) assay; assay type: cell-based; settings: anaerobic, 37° C., 18 h
Method: as §1

Lactobacillus casei = experiment: Minimum Inhibitory Concentration (MIC) assay; assay type: cell-based; settings: Lacticaseibacillus casei; anaerobic, 37° C., 18 h
Method: as §1

Micrococcus luteus = experiment: Minimum Inhibitory Concentration (MIC) assay; assay type: cell-based; settings: aerobic, 37° C., 18 h
Method: as §1

[2] = system: Streptococcus salivarius subsp. salivarius; experiment: Minimum Inhibitory Concentration (MIC) assay; assay type: cell-based; settings: anaerobic, 37° C., 18 h
Method: as §1

[3] = system: Monocytes differentiated into macrophages; experiment: CD80 expression on monocytes differentiated into macrophages; assay type: cell-based, Human; settings: 24 h
Method: Human peripheral blood mononuclear cells (PBMCs) were purified from healthy donors with Ficoll-Paque density centrifugation. Cells were cultured in complete RPMI-1640 media (Invitrogen) supplemented with 25 mM HEPES, L-glutamine, Sodium pyruvate (Sigma), 10% fetal bovine serum, 100 μg/mL penicillin and 100 μg/mL streptomycin (Hyclone) for 24-72 hours in 37° C., 5% CO2 and stimulated with and increasing concentrations of compound 1 and 2. Cells were then washed in PBS and stained with monoclonal antibodies specific for cell surface markers (BD Pharmingen) and analysed with flow cytomtetry using a BD FACS Canto II flow cytometer. All samples were tested in duplicates.
Human peripheral blood mononuclear cells (PBMCs) were purified from healthy donors with Ficoll-Paque density centrifugation. Cells were cultured in complete RPMI-1640 medium (Invitrogen) supplemented with 25 mM HEPES, L-glutamine, Sodium pyruvate (Sigma), 10% fetal bovine serum, 100 μg/mL penicillin and 100 μg/mL streptomycin (Hyclone). […] The cells were removed from the plate, washed in PBS and analysed for expression of cell specific surface markers and MHC class I with flow cytomtery using monoclonal antibodies from BD Pharmingen and a FACS Canto II flow cytometer.

T cells in PBMC = experiment: T cell proliferation, Cell Trace Violet and flow cytometry; assay type: cell-based, Human; settings: 6 days in the presence of IL-2
Method: FIG. 7. CD4 T cell proliferation after 6 days stimulation with compound 1, measured with proliferation dye Celltrace violet (Invitrogen) and flow cytometry. Untreated cells (UNT) or compound A were used as controls.
Study 6: PBMC were stimulated with compound 1 and cultured in RPMI media for 6 days in the presence of IL-2 (Miltenyi Biotechnologies) and Cell Trace Violet Dye (Invitrogen). Proliferation was measured with flow cytometry.

[4] = system: CMV specific CD8+ T cells; experiment: CMV cultures: phenotype of CMV specific CD8+ T cells; assay type: cell-based, Human; settings: CMV antigen, 6 days
Method: Human peripheral blood mononuclear cells (PBMCs) were purified from healthy CMV positive donors with Ficoll-Paque density centrifugation. The PBMC were labeled with 5 μM celltrace violet (Invitrogen) in PBS for 15 minutes and then washed with complete cell culture medium. The labeled PBMC was cultured in the presence of a peptide library spanning the CMV pp65 protein (1 μg peptide/ml, JPT) in AIM-V media (Invitrogen) supplemented with L-glutamine, Sodium pyruvate (Sigma), 10% fetal bovine serum, 100 μg/mL penicillin and 100 μg/mL streptomycin (Hyclone) for 6-8 days in 37° C., 5% CO2. Cell proliferation was assessed with flow cytomtery using a BD FACS Canto II flow cytometer.
Study 7: Virus specific T cell proliferation was also affected by compound 1. […] CD127 is crucial for T cell homeostasis, differentiation and function, and reduced expression correlates with disease severity in HIV and other chronic viral diseases (Crawley et al. 2012).

[5] = system: PBMCs from CMV infected donors; experiment: IFN-gamma secretion from PBMCs of CMV infected donors with CMV antigen (cytometric bead assay); assay type: cell-based, Human; settings: 3 days
From the text: FIG. 9: Interferon-gamma secretion (as measured by cytometric bead assay) from PBMCs (from a CMV+ donor) grown with CMV peptides in the presence or absence of compound 1 or A for 5 days.
Study 8: PBMCs from CMV infected donors cultured in the presence of CMV antigen where either untreated or exposed to compound 1 or compound 2 for 3 days.

CD4+ T cells = experiment: IL-1beta secretion from CD4+ T cells (cytometric bead assay); assay type: cell-based, Human; settings: 2 days
Method: FIG. 13: IL1b secretion (as measured by cytometric bead assay) from PBMC, macrophages or CD4 T cells stimulated with indicated compound for 48 h.
Study 12: PBMCs, macrophages and CD4+ T cells where exposed to compounds 1 and 2 for 2 days.

CD25+ cells = experiment: CD25 expression in blood of mice after i.v. dosing; assay type: in vivo, C57bl/6 mice; settings: highest dose of 5 mg/kg, 24 h
Method: FIG. 14: % CD25high cells in blood of C57bl/6 mice injected 24 h previously with indicated dose of compound 1. CD25 expression was measured by flow cytometry.
Study 13: Compound 1 was administered i.v. to C57bl/6 mice at 0.165 mg/kg to 5 mg/kg. CD25+ cell abundance was increased in animals receiving the highest dose of 5 mg/kg (FIG. 14), as was body weight in the same group (not shown).

CD11b+ splenocytes = experiment: MHC class I expression on CD11b+ splenocytes of mice after i.v. dosing; assay type: in vivo, C57bl/6 mice; settings: spleen removed 24 h later
Method: FIG. 15: % MHC class I high CD11 b+ cells in spleen of 3 individual C57bl/6 mice injected 24 h previously with indicated compound. MHC class I and CD11b expression was measured by flow cytometry.
Study 14: Compound 1 or 2 was administered i.v. to C57bl/6 mice.

Compound: CC[C@H]1OC(=O)[C@H](C)[C@@H](O[C@H]2C[C@@H](N(C)C)[C@H](O)[C@@H](C)O2)[C@H](C)[C@@H](O)[C@](C)(O)C[C@@H](C)CN(C)[C@H](C)[C@@H](O)[C@]1(C)O [Compound 1]
- MIC [1]: > 64 µg/mL
- MIC (Escherichia coli): > 64 µg/mL
- MIC (Lactobacillus casei): > 64 µg/mL
- MIC (Micrococcus luteus): > 256 µg/mL
- MIC [2]: > 64 µg/mL
- CD80 on macrophages [3]: upregulated
- cytokine driven proliferation of T cells (T cells in PBMC): altered cytokine driven proliferation profile
- expression of IL-7 receptor a (CD127) on activated CMV specific CD8+ T cells [4]: increased expression
- IFN-gamma secretion, PBMCs with CMV antigen [5]: induced secretion of high levels
- IL-1beta secretion, CD4+ T cells (CD4+ T cells): no IL-1beta was induced
- CD25+ cell abundance (CD25+ cells): increased
- splenocyte cells with high MHC I expression (CD11b+) (CD11b+ splenocytes): induced an increase
